For series [1], the system named is SP3. Briefly: Bacterial membrane permeability (propidium iodide fluorescence). It counts as cell-based, Staphylococcus pseudintermedius. The settings on record: SP3, 5X MIC, 10 µM propidium iodide, 30 minutes; in comparison to (KFF)3K, WR-12 and penetratin. On the procedure:
Bacterial membrane damage was assessed by fluorescence change of propidium iodide dye as described previously. Briefly, SP3 was grown in MHB to logarithmic phase of growth then diluted to OD600≈0.25. Propidium iodide was mixed with bacteria to a final concentration of 10 µM. […] The percentage of membrane permeabilization was calculated as the percent of fluorescent intensity of peptide-treated samples with respect to fluorescence intensity of propidium iodide-loaded, peptide untreated samples.

Series [2] has as its system SP3. Briefly: Growth kinetics (culture turbidity, OD600). It counts as cell-based, Staphylococcus pseudintermedius. The settings on record: SP3, 5 X MIC, MHB, OD600, within the same time frame (7 hours). On the procedure:
The turbidity of bacterial culture after exposure to peptides was measured as described previously. Briefly, logarithmic growth of SP 3 was diluted in MHB to reach OD600≈0.25. One mL of diluted bacteria was added to a plastic cuvette (light path 1 cm). Peptides and antibiotics were added to cuvettes at a concentration equivalent to 5 X MIC as determined in antibacterial assays above. Cuvettes were incubated aerobically at 37°C. At specific time points, OD was measured at 600 nm wavelength by spectrophotometer. Cuvettes containing MHB without bacteria and with the same concentrations of peptide or antibiotic served as blanks. Nisin at 5 X MIC and untreated bacteria were used as positive and negative controls, respectively. The assay was repeated twice and the average was reported.

Series [3] relates to mammalian cells (J774A.1 and HaCat). Briefly: Cytotoxicity, MTS assay, statement for both cell lines. The following applies: 24 hours. On the procedure: Peptides were assayed at different concentrations against macrophage-like cell line (J774A.1) and human keratinocyte (HaCat) to determine the potential toxic effect in vitro. […] Untreated cells were used as a negative control. […] After incubation, the cells were washed three times with PBS and the media in each well were replaced with 100 µL of DMEM media and 20 µL of assay reagent, MTS 3-(4,5-dimethylthiazol-2-yl)-5-(3-carboxymethoxyphenyl)-2-(4-sulfophenyl)-2H-tetrazolium) (Promega, Madison, WI, USA). The cells were incubated further for 4 h at 37°C. Corrected absorbance readings (actual absorbance readings for each treatment subtracted from background absorbance) were taken using a kinetic ELISA microplate reader (Molecular Devices, Sunnyvale, CA, USA). Cell viability was expressed as percentage of absorbance in comparison to negative control, untreated cells.
Cytotoxicity data were subjected to statistical analysis using GraphPad Prism 6.0 (GraphPad Software, La Jolla, CA). Cytotoxicity data were analyzed using one-way ANOVA, with post hoc Tukey's multiple comparisons test. P-values of <0.01 were considered significant.

The subject of series [4] is Staphylococcus pseudintermedius (SP3). It is filed as cell-based. On the procedure: The synergistic effect between peptides and antimicrobial agents was determined by the combination assay as described previously. Peptide MICs against SP3 were determined in triplicate. […] Additive was defined as an FIC index of 1. Antagonism was defined as an FIC index of >4.
For series [5], the system named is S. pseudintermedius (SP6). It counts as cell-based, Staphylococcus pseudintermedius. The settings on record: SP6, serial passages at 1/2 X MIC. An excerpt: Results were expressed as the ratio of MIC value after each passage compared to the initial MIC value.
The subject of a further series is MRSP (SP3). Briefly: Time kill assay. It counts as cell-based, Staphylococcus pseudintermedius. The settings on record: SP3, 5X MIC, MHB. On the procedure: One strain of MRSP (SP3) was grown overnight in MHB, then diluted in fresh MHB and incubated for 2 hr until logarithmic growth phase was achieved. Then bacteria were centrifuged and washed twice with phosphate buffered saline (PBS) and adjusted to ∼5×10^5 CFU/ml in MHB. […] Aliquots at specified time points were taken, serially diluted in PBS and plated in triplicate on MHA. CFUs were counted after incubation of plates for 24 hr at 37°C.

In series [6] the test system is methicillin sensitive Staphylococcus pseudintermedius (MSSP) strains. On the procedure: (§1) Forty isolates of S. pseudintermedius (30 MSSP and 10 MRSP) identified at the Indiana Animal Disease Diagnostic laboratory from specimens collected from dogs admitted to the small animal teaching hospital at Purdue University were included in the study (Tables 2 and 3). […] Vitek identification of S. pseudintermedius was confirmed by a positive coagulase test. Antimicrobial susceptibility was determined by broth microdilution using the SensiTitre (Trek).
(§2) The broth microdilution technique was used to determine the minimum inhibitory concentrations (MIC) of peptides and antibiotics in MHB in accordance with the Clinical and Laboratory Standards Institute (CLSI) guidelines. Peptides were dissolved in sterile distilled water containing 0.02% acetic acid. […] MIC was defined as the lowest concentration of peptide which inhibited the visible growth of bacteria. MIC was done in triplicates and the highest value was reported.

Series [7] concerns methicillin resistant Staphylococcus pseudintermedius (MRSP) strains. On the procedure:
as §1, §2

Series [8] relates to human keratinocyte (HaCat). Briefly: Cytotoxicity, MTS assay, HaCat. It counts as cell-based. The settings on record: 24 h. An excerpt:
(§3) Untreated cells were used as a negative control.
On the technique in general: Tetrazolium dyes change colour on reduction, which living cells bring about.

Series [9] concerns macrophage-like cell line (J774A.1). Briefly: Cytotoxicity, MTS assay, J774A.1. The following applies: 24 h. It counts as cell-based.
Series [10] has as its system S. pseudintermedius strains. It is filed as cell-based, Staphylococcus pseudintermedius. The settings on record: 24 h. On the procedure: The broth microdilution technique was used to determine the minimum inhibitory concentrations (MIC) of peptides and antibiotics in MHB in accordance with the Clinical and Laboratory Standards Institute (CLSI) guidelines. Peptides were dissolved in sterile distilled water containing 0.02% acetic acid. MIC assays were carried out with an initial bacterial inoculum of 5×10^5 colony forming unit (CFU/ml). Peptides and antibiotics were added to Polystyrene 96 well plates (CytoOne, CC7672-7596) at desired concentrations and plates were incubated for 24 hr at 37°C. MIC was defined as the lowest concentration of peptide which inhibited the visible growth of bacteria. MIC was done in triplicates and the highest value was reported.
as §3

Series [11] deals with mammalian or microbial proteases. The following applies: effect of the D-amino acids substitution; cited from earlier work. An excerpt: WR-12 is a broad-spectrum AMP and consists exclusively of arginine and tryptophan, arranged to form idealized amphipathic helices. […] Additionally, the D-amino acids ...

Results on five compounds are retold here after article PMC4281220, “Antibacterial Activity of Novel Cationic Peptides against Clinical Isolates of Multi-Drug Resistant Staphylococcus pseudintermedius from Infected Dogs” (PLoS ONE, 2014).

Values after ≈ are worked out from the molar mass of the structure shown. Like-named read-outs stand apart in the source and are kept apart here. Non-standard residues stand in square brackets, D forms with d. Residues, ends and D or L forms follow the SMILES beside them.

With Nisin, the “membrane perturbation, propidium iodide fluorescence (comparison in words)” value with SP3 [1] was “faster and more potent at membrane perturbation”.

For `O=C(O)c1cn(C2CC2)c2cc(N3CCNCC3)c(F)cc2c1=O` [Ciprofloxacin, ciprofloxacin], the “effect on culture turbidity” value in the series on SP3 [2] is “did not reduce the culture turbidity”.

Regarding `CC[C@H](C)[C@H](NC(=O)[C@H](CCCNC(=N)N)NC(=O)[C@H](CCCNC(=N)N)NC(=O)[C@H](CC(C)C)NC(=O)[C@@H](N)Cc1c[nH]c2ccccc12)C(=O)N[C@@H](CCCCN)C(=O)N[C@@H](C)C(=O)N[C@@H](Cc1c[nH]c2ccccc12)C(=O)N[C@@H](CC(C)C)C(=O)N[C@@H](CCCNC(=N)N)C(=O)N[C@@H](CCCNC(=N)N)C(=O)O` [RR] (H-WLRRIKAWLRR-OH), the “concentration up to which not toxic to mammalian cells” value in series [3] was “up to 64 µM”.

In the case of `NCC[C@H](O)C(=O)N[C@@H]1C[C@H](N)[C@@H](O[C@H]2O[C@H](CN)[C@@H](O)[C@H](O)[C@H]2O)[C@H](O)[C@H]1O[C@H]1O[C@H](CO)[C@@H](O)[C@H](N)[C@H]1O` [Amikacin, amikacin hydrate], the FIC index in series [4] (compound serially diluted in the presence of (KFF)3K fixed at one-quarter of its MIC) stood at 0.37; in [4] (compound serially diluted in the presence of IK8 “D isoform” fixed at one-quarter of its MIC) it was 0.75; in series [4] (compound serially diluted in the presence of Penetratin fixed at one-quarter of its MIC) it was 0.75; in series [4] (compound serially diluted in the presence of RR fixed at one-quarter of its MIC), 0.75; in [4] (compound serially diluted in the presence of RRIKA fixed at one-quarter of its MIC), 1; in series [4] (compound serially diluted in the presence of WR-12 fixed at one-quarter of its MIC) it was 1. In the series on SP3 [2], the “effect on culture turbidity” value is on record as “did not reduce the culture turbidity”. Also, the “passage at which shift (doubling) of the MIC began” value in series [5] is on record as 4 passage. The “fold increase in the MIC by passage 10” value in [5] (ratio to the initial MIC) turned out to be 32 fold. In the series with MRSP (SP3), the “log10 reduction after 12 hours incubation” value was determined as 3 log10. Moreover, in the series on MRSP (SP3) (37°C), the “log10 reduction within 3 hours” value is “less than one log10 reduction”. The “time after which bactericidal activity was demonstrated” value with MRSP (SP3) (data not shown) stood at 12 h.

One may read the MIC50 as an inhibitory concentration at the 50% level, which refers to growth in some studies and to a panel of isolates in others. Higher therefore signals lower susceptibility. The MIC90 is the lowest concentration that inhibits either 90% of growth or 90% of the strains tested, depending on the study. What is called IC50 is the concentration needed to halve the response being measured. A high value points to weaker potency in that assay. With `CC[C@@H](C)[C@@H](N)C(=O)N[C@H](CCCNC(=N)N)C(=O)N[C@@H](C(=O)N[C@H](CCCCN)C(=O)N[C@@H](C(=O)N[C@H](CCCNC(=N)N)C(=O)N[C@@H](C(=O)N[C@H](CCCCN)C(=O)O)[C@H](C)CC)[C@H](C)CC)[C@H](C)CC` [IK8 “D isoform”] (H-[dI][dR][dI][dK][dI][dR][dI][dK]-OH), in series [6], the MIC50 worked out at 4 µM (≈ 4.16 µg/mL) and the MIC90 was found to be 8 µM (≈ 8.32 µg/mL). In series [7], this compound had an MIC50 of 4 µM (≈ 4.16 µg/mL) and an MIC90 of 4 µM (≈ 4.16 µg/mL). The IC50 in [8] was > 256 µM. In addition, in series [9], the IC50 is > 256 µM and the “TI (Therapeutic index) J774A.1” value was >51.2/>51.2. Further, the “GM MIC S. pseudintermedius” value in series [10] is given as 5 µM. Also, the “proteolytic degradation by mammalian or microbial proteases” value in series [11] is recorded as “prevented proteolytic degradation”.
